Active and inactive are the calls of the source.
Assays:
Estrogen receptor = Estrogen receptor (Homo sapiens, UniProt P03372);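 also: potency for inhibiting coactivator peptide recruitment to the receptor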
[1] = target: Epstein-Barr nuclear antigen 1 (Epstein-Barr virus (strain B95-8) (HHV-4) (Human herpesvirus 4), UniProt P03211); experiment: EBNA-1 inhibitors, dose response, biochemical, fluorescence polarization, 1536-well (AID 2381); design: species or system human gammaherpesvirus 4;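 also: fluorescence polarization of a Cy5 DNA probe bound by EBNA-1 protein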
Epstein-Barr nuclear antigen 1, sequence (P03211 whole entry): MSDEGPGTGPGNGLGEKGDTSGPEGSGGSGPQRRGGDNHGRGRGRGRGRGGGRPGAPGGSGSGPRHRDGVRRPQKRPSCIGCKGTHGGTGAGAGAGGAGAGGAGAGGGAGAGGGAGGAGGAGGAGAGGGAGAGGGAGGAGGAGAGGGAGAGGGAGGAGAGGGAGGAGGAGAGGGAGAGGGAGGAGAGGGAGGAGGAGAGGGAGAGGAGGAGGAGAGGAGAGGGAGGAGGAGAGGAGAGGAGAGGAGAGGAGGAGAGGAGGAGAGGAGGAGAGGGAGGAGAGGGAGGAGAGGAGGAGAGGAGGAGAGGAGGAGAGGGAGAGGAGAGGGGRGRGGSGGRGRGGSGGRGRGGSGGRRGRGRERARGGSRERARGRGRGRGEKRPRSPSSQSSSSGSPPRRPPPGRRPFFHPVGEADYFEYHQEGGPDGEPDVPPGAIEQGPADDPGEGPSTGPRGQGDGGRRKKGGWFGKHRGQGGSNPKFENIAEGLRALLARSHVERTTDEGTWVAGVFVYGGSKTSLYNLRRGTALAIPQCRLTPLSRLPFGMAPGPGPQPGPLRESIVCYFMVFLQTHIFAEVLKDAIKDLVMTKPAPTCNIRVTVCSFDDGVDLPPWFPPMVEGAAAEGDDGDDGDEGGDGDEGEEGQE

[2] = target: T1, Calpain-2 catalytic subunit (Sus scrofa, UniProt P43367); experiment: pig calpain II inhibitor potency, dose response, biochemical, fluorogenic peptide substrate (AID 1420); assay type: functional
T1 sequence (P43367 whole entry): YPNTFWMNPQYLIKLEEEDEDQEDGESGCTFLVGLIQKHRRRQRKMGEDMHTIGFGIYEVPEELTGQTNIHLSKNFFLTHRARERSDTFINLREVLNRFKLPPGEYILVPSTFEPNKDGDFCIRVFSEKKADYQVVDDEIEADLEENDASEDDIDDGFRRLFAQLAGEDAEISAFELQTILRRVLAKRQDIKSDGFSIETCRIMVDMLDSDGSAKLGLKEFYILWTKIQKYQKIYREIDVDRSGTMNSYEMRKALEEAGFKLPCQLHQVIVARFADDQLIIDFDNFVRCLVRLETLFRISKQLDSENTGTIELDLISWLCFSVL

[3] = target: Lytic switch protein BZLF1 (Epstein-Barr virus (strain B95-8) (HHV-4) (Human herpesvirus 4), UniProt P03206); experiment: EBV ZTA inhibitors, dose response, counter-screen for EBNA-1 inhibitor project, biochemical, fluorescence polarization, Epstein-Barr virus, 1536-well (AID 2377); design: species or system human gammaherpesvirus 4;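 also: fluorescence polarization of Cy5-labelled ZRE DNA probe bound by purified Zta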
Lytic switch protein BZLF1, sequence (P03206 whole entry, the tested form may be a part): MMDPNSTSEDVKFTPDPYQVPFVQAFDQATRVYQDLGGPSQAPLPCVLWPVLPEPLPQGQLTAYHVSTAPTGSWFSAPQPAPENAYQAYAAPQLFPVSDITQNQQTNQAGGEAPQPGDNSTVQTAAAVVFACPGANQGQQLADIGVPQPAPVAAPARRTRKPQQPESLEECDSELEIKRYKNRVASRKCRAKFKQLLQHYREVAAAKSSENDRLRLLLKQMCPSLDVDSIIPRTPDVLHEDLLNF

[4] = target: T2, RNA-binding protein pos-1 (Caenorhabditis elegans, UniProt G5EF15); experiment: inhibitors of POS-1/mex-3 RNA binding, dose response, biochemical, fluorescence polarization (AID 1964);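 also: purified POS-1 fused to maltose binding protein made in E. coli; potency of compounds blocking POS-1 binding to fluorescent RNA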
T2 sequence (G5EF15 whole entry): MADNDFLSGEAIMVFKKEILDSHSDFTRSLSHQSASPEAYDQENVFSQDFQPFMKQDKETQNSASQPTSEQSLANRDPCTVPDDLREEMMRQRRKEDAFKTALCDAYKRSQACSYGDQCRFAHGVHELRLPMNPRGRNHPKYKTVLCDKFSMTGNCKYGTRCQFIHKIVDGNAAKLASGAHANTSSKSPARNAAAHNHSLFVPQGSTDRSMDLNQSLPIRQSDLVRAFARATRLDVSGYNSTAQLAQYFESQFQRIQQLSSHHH

[5] = target: T3, Zinc finger protein mex-5 (Caenorhabditis elegans, UniProt Q9XUB2); experiment: MEX-5/TCR-2 RNA interaction inhibitors, dose response, biochemical, C. elegans, fluorescence polarization (AID 1960)
T3 sequence (Q9XUB2 whole entry): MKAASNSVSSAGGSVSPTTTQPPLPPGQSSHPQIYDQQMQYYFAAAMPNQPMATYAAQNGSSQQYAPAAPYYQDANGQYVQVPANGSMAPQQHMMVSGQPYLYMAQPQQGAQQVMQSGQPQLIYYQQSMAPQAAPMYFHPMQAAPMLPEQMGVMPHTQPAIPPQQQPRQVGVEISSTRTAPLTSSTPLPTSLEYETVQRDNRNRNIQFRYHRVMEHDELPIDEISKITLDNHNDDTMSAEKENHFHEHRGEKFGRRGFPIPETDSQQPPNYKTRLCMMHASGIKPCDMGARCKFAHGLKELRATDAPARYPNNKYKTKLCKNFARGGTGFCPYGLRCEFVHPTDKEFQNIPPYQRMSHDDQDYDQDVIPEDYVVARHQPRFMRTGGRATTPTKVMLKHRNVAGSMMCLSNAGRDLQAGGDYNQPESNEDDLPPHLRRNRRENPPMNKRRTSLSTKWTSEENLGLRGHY

[6] = M. tuberculosis H37Rv growth inhibitors, H37Rv strain (AID 1626); assay type: functional
[7] = P. falciparum 3D7-ScDHODH growth inhibitors, dose response, SYBR Green, dry powder samples (AID 1159570); assay type: functional, cell-based;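 also: parasite growth measured after 72 hours of compound exposure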
[8] = HepG2 cell cytotoxicity, dose response, cytotoxicity control, plate reader, dry powder samples (AID 1159569); assay type: functional, cell-based;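 also: inhibitor potency with signal falling toward the positive control level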
[9] = P. falciparum Dd2 growth inhibitors, dose response, SYBR Green, cherry-picked samples (AID 1159567); assay type: functional, cell-based
[10] = P. falciparum Dd2 growth inhibitors, dose response, SYBR Green, dry powder samples (AID 1159566); assay type: functional, cell-based;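 also: potency for growth inhibition with lower SYBR green DNA signal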
[11] = P. falciparum ATP4 D1247Y mutant growth inhibitors, dose response, NITD609-resistant line, SYBR Green, dry powder (AID 1159571); assay type: functional, cell-based;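 also: parasites synchronized at ring stage by sorbitol before testing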
[12] = target: Sphingosine 1-phosphate receptor 2 (Homo sapiens, UniProt O95136); experiment: Dose Response Cell Based Assay for Agonists of the S1P2 Receptor. [Related pubchem assays: 729, 736, 843 ]; assay type: functional
Sphingosine 1-phosphate receptor 2, sequence (O95136 whole entry): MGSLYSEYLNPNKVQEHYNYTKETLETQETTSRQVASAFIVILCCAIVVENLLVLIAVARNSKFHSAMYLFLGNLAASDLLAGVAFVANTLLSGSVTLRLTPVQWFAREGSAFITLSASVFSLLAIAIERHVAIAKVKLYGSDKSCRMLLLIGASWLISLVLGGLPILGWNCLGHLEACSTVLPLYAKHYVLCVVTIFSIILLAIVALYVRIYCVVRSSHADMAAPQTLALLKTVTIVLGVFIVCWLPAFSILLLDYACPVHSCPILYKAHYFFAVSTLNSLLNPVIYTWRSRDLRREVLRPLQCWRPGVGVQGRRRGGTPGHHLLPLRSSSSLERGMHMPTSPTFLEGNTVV

[13] = target: Voltage-dependent T-type calcium channel subunit alpha-1H (Homo sapiens, UniProt O95180); assay type: functional;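 also: channel activity triggered by adding a high calcium stimulation buffer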
Mucolipin-3 = Mucolipin-3 (Homo sapiens, UniProt Q8TDD5); experiment: Dose response cell-based high-throughput screening assay for agonists of the transient receptor potential channel ML3 (TRPML3). [Related pubchem assays: 1526, 1424, 1448 ]; assay type: functional
Mucolipin-3, sequence (Q8TDD5 whole entry): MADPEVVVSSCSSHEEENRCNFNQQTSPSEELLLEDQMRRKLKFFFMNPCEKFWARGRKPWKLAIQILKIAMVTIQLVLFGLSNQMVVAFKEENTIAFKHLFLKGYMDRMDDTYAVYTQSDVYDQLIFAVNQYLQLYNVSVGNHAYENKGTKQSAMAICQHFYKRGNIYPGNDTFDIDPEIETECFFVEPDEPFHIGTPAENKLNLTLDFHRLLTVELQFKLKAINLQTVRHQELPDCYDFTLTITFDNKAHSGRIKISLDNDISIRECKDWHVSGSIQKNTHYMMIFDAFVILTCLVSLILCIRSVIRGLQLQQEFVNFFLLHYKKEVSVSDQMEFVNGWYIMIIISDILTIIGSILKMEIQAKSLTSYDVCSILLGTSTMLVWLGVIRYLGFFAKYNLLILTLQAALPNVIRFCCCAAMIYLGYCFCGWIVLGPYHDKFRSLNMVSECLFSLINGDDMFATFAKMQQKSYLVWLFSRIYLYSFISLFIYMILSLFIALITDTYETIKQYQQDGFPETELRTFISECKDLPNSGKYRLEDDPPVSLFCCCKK

Ion channel NompC = Ion channel NompC (Danio rerio, UniProt Q7T1G6); experiment: Fluorescence counterscreen assay for TRPML3 agonists: dose response cell-based high-throughput screening assay to identify agonists of the transient receptor potential channel N1 (TRPN1). [Related pubchem assays: 1526, 1424, 1448 ]; assay type: functional
NADPH oxidase 1 = NADPH oxidase 1 (Homo sapiens, UniProt Q9Y5S8); experiment: Luminescence-based cell-based dose response assay to identify inhibitors of NADPH oxidase 1 (NOX1).; assay type: functional
NADPH oxidase 1, sequence (Q9Y5S8 whole entry): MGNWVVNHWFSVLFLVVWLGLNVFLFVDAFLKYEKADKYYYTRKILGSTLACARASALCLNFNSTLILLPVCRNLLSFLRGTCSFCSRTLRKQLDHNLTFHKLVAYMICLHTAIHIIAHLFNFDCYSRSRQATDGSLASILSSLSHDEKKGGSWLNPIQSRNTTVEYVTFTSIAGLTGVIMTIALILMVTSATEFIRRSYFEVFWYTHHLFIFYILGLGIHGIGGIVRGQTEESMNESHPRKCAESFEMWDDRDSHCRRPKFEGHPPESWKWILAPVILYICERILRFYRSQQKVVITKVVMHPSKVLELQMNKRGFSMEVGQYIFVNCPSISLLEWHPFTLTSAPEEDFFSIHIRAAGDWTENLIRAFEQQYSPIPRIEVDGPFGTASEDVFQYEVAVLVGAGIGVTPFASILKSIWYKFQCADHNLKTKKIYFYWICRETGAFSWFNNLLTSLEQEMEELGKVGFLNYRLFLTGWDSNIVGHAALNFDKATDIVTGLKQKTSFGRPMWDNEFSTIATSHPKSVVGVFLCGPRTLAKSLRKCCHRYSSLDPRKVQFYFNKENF

[14] = target: T4, Short transient receptor potential channel 4 (Mus musculus, UniProt Q9QUQ5); experiment: mouse TRPC4 channel inhibitors, dose response, cell-based, HEK293 TRPC4/mu-opioid, Fluo-4 calcium (AID 434942); assay type: functional;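 also: potency of inhibitors blocking the TRPC4 calcium response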
T4 sequence (Q9QUQ5 whole entry): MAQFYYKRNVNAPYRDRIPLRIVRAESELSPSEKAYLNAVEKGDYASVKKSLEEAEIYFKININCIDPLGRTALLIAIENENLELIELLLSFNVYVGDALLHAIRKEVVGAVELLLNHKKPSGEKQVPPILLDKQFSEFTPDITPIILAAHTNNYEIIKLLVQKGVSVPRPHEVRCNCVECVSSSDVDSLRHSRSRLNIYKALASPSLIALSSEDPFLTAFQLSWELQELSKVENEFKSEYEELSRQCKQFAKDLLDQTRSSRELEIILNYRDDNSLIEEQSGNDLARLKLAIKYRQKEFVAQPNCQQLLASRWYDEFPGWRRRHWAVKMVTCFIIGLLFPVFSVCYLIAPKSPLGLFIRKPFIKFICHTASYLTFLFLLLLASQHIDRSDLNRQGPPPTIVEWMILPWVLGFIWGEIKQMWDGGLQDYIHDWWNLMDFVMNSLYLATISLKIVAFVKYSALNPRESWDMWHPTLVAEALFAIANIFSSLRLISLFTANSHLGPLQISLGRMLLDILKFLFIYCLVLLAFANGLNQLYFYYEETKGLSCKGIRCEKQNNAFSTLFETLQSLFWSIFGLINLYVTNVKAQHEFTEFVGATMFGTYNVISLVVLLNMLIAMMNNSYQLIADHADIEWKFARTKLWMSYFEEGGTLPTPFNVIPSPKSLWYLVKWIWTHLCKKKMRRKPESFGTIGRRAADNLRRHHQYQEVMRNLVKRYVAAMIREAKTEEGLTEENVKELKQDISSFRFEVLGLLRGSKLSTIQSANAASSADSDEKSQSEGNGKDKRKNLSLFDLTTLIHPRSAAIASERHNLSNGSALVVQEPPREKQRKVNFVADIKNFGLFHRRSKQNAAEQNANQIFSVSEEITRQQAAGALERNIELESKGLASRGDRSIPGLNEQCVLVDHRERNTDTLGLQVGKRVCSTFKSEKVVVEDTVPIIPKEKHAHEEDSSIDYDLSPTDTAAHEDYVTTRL

[15] = Vero cell cytotoxicity, dose response, cytotoxicity control for Vif-APOBEC3G degradation inhibitor project, Vero cells (AID 1117358); assay type: functional; details: Human immunodeficiency virus 1, Vero
[16] = NIH-3T3 fibroblast cytotoxicity, dose response, cytotoxicity control, cell-based, fluorescence, Alamar Blue, secondary assay (AID 2327); assay type: functional;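 also: NIH-3T3 mouse fibroblasts cultured with fluconazole at 8 µg/mL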
[17] = inhibitors of firefly luciferase expression or activity, dose response, H4 neuroglioma cells, luminescence (AID 1990); assay type: functional, cell-based
[18] = Luminescence Cell-Based Dose Response HTS to Identify Inhibitors of 5'UTR Stem-Loop Driven Prion Protein mRNA Translation in H4 Neuroglioblastoma Cells. [Related pubchem assays: 1827 (Project Summary), 1813 (Primary HTS)]; assay type: functional
[19] = inhibitors of SNCA 5'UTR-driven reporter translation, confirmation, H4 neuroglioma cells, luminescence (AID 1988); assay type: functional, cell-based
[20] = C. albicans growth with fluconazole, confirmation, fluorescence, retest (AID 2467); assay type: functional, cell-based
[21] = inhibitors of intracellular T. cruzi replication, confirmation, NIH3T3 host cells, beta-gal luminescence (AID 2044); assay type: functional, cell-based;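 also: intracellular parasites grown in NIH/3T3 mouse fibroblasts as host cells; luminescent beta-galactosidase reporter signal from transgenic T. cruzi replicating inside host cells; inhibitors lower the luminescence signal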
[22] = target: T5, Serine/threonine-protein phosphatase (Candida dubliniensis (strain CD36 / CBS 7987 / NCPF 3949 / NRRLY-17841) (Yeast), UniProt B9W6M3); experiment: calcineurin pathway inhibitors in yeast reporter, dose response, S. cerevisiae, CDRE-lacZ, luminescence, secondary (AID 2388); assay type: functional, cell-based;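 also: yeast reporter cells carrying a calcineurin-responsive lacZ construct stimulated with calcium chloride; luminescent beta-galactosidase reporter signal in whole cells rather than isolated phosphatase activity; potency for inhibition where a drop in reporter signal means calcineurin blockade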
T5 sequence (B9W6M3 whole entry): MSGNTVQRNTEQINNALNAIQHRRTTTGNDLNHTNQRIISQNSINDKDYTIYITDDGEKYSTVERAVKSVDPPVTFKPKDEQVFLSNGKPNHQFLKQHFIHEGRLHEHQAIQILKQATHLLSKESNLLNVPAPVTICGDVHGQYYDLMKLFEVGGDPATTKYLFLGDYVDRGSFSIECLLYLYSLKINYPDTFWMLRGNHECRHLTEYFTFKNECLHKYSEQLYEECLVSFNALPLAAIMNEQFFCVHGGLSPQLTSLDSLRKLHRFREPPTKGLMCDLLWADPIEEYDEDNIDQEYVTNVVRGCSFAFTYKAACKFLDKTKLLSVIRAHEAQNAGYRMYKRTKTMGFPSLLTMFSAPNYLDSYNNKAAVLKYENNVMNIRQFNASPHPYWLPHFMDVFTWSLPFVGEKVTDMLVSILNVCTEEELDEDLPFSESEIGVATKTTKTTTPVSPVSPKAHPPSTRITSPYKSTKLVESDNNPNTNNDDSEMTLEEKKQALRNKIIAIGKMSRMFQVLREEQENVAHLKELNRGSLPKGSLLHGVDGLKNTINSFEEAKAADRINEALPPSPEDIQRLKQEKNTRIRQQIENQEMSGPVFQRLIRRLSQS

[23] = cytotoxicity toward NIH3T3 fibroblasts, dose response, counter-screen, cell-based, ATP luminescence, mouse fibroblasts (AID 2010); assay type: functional;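 also: cells exposed to compound for about 90 hours before reading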
[24] = target: ATP-dependent molecular chaperone HSP82 (Candida albicans (strain WO-1) (Yeast), UniProt C4YTQ8); experiment: loss of DOC-induced GRE-beta-galactosidase reporter signal, dose response, Hsp90 inhibitor project, S. cerevisiae, luminescence (AID 2400); assay type: functional, cell-based;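 also: beta-galactosidase luminescence from glucocorticoid response element reporter as proxy for Hsp90 function; inhibitor potency where signal loss means Hsp90 inhibition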
ATP-dependent molecular chaperone HSP82, sequence (C4YTQ8 whole entry): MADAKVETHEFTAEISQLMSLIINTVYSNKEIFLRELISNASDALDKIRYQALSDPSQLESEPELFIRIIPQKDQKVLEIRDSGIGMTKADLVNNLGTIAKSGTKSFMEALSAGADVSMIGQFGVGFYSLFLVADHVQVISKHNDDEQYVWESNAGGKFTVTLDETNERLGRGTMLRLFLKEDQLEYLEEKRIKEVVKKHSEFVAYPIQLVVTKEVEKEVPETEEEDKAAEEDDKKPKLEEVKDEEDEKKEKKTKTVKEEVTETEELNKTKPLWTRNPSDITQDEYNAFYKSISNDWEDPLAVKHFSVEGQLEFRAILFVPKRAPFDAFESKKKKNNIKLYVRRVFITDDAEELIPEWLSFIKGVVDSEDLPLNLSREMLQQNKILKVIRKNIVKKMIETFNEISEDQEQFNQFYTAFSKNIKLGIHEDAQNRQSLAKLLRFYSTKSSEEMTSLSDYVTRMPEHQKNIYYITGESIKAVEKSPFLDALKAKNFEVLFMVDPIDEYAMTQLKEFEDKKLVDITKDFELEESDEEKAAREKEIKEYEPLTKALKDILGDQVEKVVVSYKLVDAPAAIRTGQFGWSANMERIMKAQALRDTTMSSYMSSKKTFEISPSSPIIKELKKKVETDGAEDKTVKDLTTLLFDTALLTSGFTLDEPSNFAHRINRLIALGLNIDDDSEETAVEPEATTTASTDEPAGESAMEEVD

Estrogen receptor beta = Estrogen receptor beta (Homo sapiens, UniProt Q92731);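 also: recombinant ER-beta bound to coactivator SRC1 peptide in presence of estradiol agonist; inhibitors block coactivator peptide binding and lower the FRET signal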
Estrogen receptor beta, sequence (Q92731 whole entry): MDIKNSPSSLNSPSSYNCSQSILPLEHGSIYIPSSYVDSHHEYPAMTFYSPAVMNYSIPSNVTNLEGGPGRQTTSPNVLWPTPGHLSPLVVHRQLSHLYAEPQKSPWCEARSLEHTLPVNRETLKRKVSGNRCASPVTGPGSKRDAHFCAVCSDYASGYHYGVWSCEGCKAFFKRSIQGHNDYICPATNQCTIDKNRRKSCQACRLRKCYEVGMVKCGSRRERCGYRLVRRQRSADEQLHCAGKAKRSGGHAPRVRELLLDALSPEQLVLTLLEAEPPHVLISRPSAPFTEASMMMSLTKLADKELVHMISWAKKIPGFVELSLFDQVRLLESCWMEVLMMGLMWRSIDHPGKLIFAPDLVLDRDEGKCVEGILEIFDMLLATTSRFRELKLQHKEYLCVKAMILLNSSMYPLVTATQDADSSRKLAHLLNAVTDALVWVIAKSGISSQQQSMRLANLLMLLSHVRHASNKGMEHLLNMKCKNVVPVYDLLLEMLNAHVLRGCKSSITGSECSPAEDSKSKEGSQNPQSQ

[25] = THP-1 cell cytotoxicity, dose response, cytotoxicity control for Vif-APOBEC3G degradation inhibitor project, THP-1 cells (AID 1117359); assay type: functional; details: Human immunodeficiency virus 1, THP-1

Estrogen receptor, sequence (P03372 whole entry): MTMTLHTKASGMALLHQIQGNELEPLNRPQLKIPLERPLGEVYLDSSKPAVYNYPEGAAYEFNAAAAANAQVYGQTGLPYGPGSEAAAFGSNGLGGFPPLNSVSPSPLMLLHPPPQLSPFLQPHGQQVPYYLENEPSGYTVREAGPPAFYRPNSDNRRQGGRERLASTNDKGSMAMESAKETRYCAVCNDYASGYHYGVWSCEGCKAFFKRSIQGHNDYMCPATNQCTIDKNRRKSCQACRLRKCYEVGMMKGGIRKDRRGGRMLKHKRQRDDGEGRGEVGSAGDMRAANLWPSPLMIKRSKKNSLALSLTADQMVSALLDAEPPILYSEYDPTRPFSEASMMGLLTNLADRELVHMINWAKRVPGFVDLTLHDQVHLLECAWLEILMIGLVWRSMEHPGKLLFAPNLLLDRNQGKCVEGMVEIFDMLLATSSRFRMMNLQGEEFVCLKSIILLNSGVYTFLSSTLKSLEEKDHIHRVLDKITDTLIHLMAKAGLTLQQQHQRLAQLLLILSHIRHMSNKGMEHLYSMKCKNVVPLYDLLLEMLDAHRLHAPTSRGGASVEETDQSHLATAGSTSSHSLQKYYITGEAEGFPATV

## CCn1c2ccccc2c2nnc(SCC(=O)Nc3ccc4c(c3)OCO4)nc21
Estrogen receptor
  IC50: > 50 µM (not active)

## CCOc1ccc(Nc2nnc(SCc3nc(O)c4ccccc4n3)s2)cc1
[1]
  IC50: 27 µM (not active)
[2]
  IC50: 29.2 µM (not active)
[3]
  IC50: > 111 µM (not active)

## CCOC(=O)c1ccc(N/C=C2\CCCCC2=O)cc1
[4]
  EC50: > 300 µM (not active)
[5]
  EC50: > 300 µM (not active)
[6]
  IC50: > 100 µM (active)

## CC(C)(C)[S@+]([O-])N1Cc2cc(C(=O)NCc3ccccc3F)nc(-c3cccc(-c4ccncc4)c3)c2[C@@H]1CCO
[7]
  AC50: 1.36 µM (active)
[8]
  AC50: 29.1 µM (active)
[9]
  AC50: 1.68 µM (active)
[10]
  AC50: 1.42 µM (active)
[11]
  AC50: 1.93 µM (active)

## O=C(Cc1c[nH]c2ccccc12)Nc1nc2ccccc2[nH]1
[12]
  EC50: > 50 µM (not active)
[13]
  EC50: 6.91 µM (active)

## Cc1ccccc1OCC(=O)Nc1ccccc1N1CCOCC1
Mucolipin-3
  EC50: 5.08 µM (active)
Ion channel NompC
  EC50: > 29.9 µM (not active)

## CN(C)c1ccc(NC(=O)Nc2cccc3ccccc23)cc1
NADPH oxidase 1
  IC50: 0.464 µM (active)

## CSc1ccc(S(=O)(=O)Nc2c(C)cccc2C)cc1
Estrogen receptor
  IC50: > 50 µM (not active)

## COc1cc(CNCCc2ccc(F)cc2)ccc1OCc1ccc(Cl)nc1
[14]
  EC50: 1.88 µM (active)
[15]
  CC50: 26.1 µM (active)

## C[C@H]1CN([C@@H](C)CO)C(=O)c2ccccc2-c2ccccc2CO[C@H]1CN(C)Cc1ccc(-c2ccccc2)cc1
[7]
  AC50: 3.92 µM (active)
[8]
  AC50: 22.2 µM (active)
[9]
  AC50: 1.59 µM (active)
[10]
  AC50: 1.11 µM (active)
[11]
  AC50: 1.19 µM (active)

## CC(=O)O/N=C/c1c(N2CCOCC2)n(C)c2ccccc12
[16]
  EC50: > 160 µM (inactive)
[17]
  EC50: > 120 µM (not active)
[18]
  EC50: > 120 µM (not active)
[19]
  EC50: 38.6 µM (active)
[20]
  EC50: 0.145 µM (active)
[21]
  EC50: 1.25 µM (active)
[22]
  EC50: > 180 µM (inactive)
[23]
  EC50: 4.45 µM (active)
[24]
  EC50: > 160 µM (inactive)
[15]
  CC50: > 40 µM (active)

## CCN(CC)c1ccc(NC(=O)Nc2ccccc2C(F)(F)F)cc1
NADPH oxidase 1
  IC50: 0.354 µM (active)
[12]
  EC50: > 50 µM (not active)

## Cc1cnc(C(=O)OCC(=O)c2csc(N3CCCCC3)n2)cn1
Estrogen receptor beta
  IC50: 5.81 µM (active)

## Cc1nc(NC(=O)CSc2nnc(-c3ccc4c(c3)OCO4)o2)c(Cl)cc1Cl
[6]
  IC50: > 100 µM (active)

## CCN(c1ccccc1)S(=O)(=O)c1ccc(C(=O)NNC(=O)c2ccccc2F)cc1
[25]
  CC50: 23.5 µM (active)
